Measurements published in patent US12168033B2, “Synergistic composition for osteoarthritis” (LAILA NUTRACEUTICALS, priority 2014, dated 2024).

Test system: Adjuvant Induced Arthritis
Test: Adjuvant Induced Arthritis in Sprague Dawley rats, Complete Freund's Adjuvant, 20 days (Example 20)
Type: in vivo
Text: Sprague Dawley Rats were housed in solid bottom autoclaved polypropylene cages at three rats per cage with stainless steel top grill. Animals were provided with rodent pellet feed and mineral water ad libitum. The animals were acclimatized for a period of 3 days prior to enrollment into the experiment and they are habituated/adapted to the experimenter and to the experimental conditions for measurement of hind limb weight bearing capacity in the Incapacitance meter. A group of 35 animals were examined and 30 healthy SD rats were selected for the study and were randomly assigned to one of five different groups based on the paw volume, i.e., normal control (G1), vehicle control (G2), two groups (G3 & G4) supplemented with test substances composition-11 (200 mg 400 mg) and with reference drug prednisolone 10 mg/kg (G5). After 7 days administration of test item, reference item or vehicle, on day 8 arthritis was induced in rats of all groups except G1 by a single subcutaneous injection of 50 μL Complete Freund's Adjuvant (Sigma-Aldrich, USA), into the sub plantar region of left hind limb. Control group animals were injected with 0.1 mL normal saline (0.9% w/v sodium chloride). The vehicle, test items and reference drug were administered till completion of the study, i.e., 20 days. Paw volume was measured by a Plethysmometer (Pan Lab, LE7500) on day 0 (prior to treatment) and day 20. The difference between the final and initial paw volume was considered as edema volume. The in vivo anti-inflammatory responses of test compounds were estimated by calculating the percentage inhibition of paw edema when compared to the paw edema observed in the CMC supplemented control group. […] Percentage weight bearing capacity was measured in all the groups before induction and on 20th day of treatment using Incapacitance Meter (IITC Life Science Inc., CA).

C[C@]12C=CC(=O)C=C1CC[C@@H]1[C@@H]2[C@@H](O)C[C@@]2(C)[C@H]1CC[C@]2(O)C(=O)CO [Prednisolone, prednisolone]
Percent Weight Bearing on Left Hind Limb, Day-20 (10 mmp (prednisolone), Day-20, mean ± S.E.M, six rats): 49.88 ± 1.13%
Percent Weight Bearing on Left Hind Limb, Before Induction (10 mmp (prednisolone), before induction): 49.57 ± 0.55%
% inhibition of paw edema (prednisolone 10 mg/kg, day 20): 69.7%
